Consider 20 molecules from US10336774B2, “N-azaspirocycloalkane substituted N-heteroaryl compounds and compositions for inhibiting the activity of SHP2” (NOVARTIS AG, priority 2014, dated 2019).

A word on the IC50: it is the midpoint of a concentration-inhibition curve.

This experiment addresses SHP2 (Homo sapiens (Human), UniProt Q06124). Kind of experiment: SHP2 Allosteric Inhibition Assay. Type of experiment: biochemical. Particulars: 0.5 nM SHP2 activated with 0.5 μM peptide IRS1_pY1172(dPEG8)pY1222, surrogate substrate DiFMUP, fluorescence. From the text:
SHP2 Allosteric Inhibition Assay SHP2 is allosterically activated through binding of bis-tyrosyl-phorphorylated peptides to its Src Homology 2 (SH2) domains. The latter activation step leads to the release of the auto-inhibitory interface of SHP2, which in turn renders the SHP2 protein tyrosine phosphatase (PTP) active and available for substrate recognition and reaction catalysis. The catalytic activity of SHP2 was monitored using the surrogate substrate DiFMUP in a prompt fluorescence assay format. […] After 30-60 minutes incubation at 25° C., the surrogate substrate DiFMUP (Invitrogen, cat# D6567) was added to the reaction and incubated at 25° C. for 30 minutes. […] The inhibitor dose response curves were analyzed using normalized IC50 regression curve fitting with control based normalization.

The structures appear in SMILES notation.

SHP2, sequence (Q06124 whole entry): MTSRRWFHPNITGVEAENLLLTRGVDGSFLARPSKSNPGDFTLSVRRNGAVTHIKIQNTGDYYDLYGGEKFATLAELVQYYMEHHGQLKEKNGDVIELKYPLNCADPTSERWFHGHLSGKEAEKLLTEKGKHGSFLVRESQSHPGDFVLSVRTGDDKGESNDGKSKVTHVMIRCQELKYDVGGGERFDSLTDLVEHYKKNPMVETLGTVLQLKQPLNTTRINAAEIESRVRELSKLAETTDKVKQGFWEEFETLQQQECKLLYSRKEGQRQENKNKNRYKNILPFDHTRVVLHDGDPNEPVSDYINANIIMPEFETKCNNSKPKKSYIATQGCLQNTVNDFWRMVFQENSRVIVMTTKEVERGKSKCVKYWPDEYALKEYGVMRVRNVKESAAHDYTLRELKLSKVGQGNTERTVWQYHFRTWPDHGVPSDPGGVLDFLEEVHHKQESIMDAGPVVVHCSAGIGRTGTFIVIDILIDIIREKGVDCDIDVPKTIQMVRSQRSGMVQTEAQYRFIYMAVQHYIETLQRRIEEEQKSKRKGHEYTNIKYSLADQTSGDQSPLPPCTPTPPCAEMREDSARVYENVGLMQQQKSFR

On to `Nc1nc(N2CCC3(CC2)COC[C@H]3N)cnc1Sc1cccnc1Cl` [Example 54], for which 10 nM corresponded to half-maximal inhibition (IC50). That is a double-digit nanomolar value.
To `Nc1cccc(Sc2ncc(N3CCC4(CC[C@@H]4N)CC3)nc2N)c1Cl` [Example 15] belongs 16 nM; to `NC1=NCCC12CCN(c1cnc(Sc3cccnc3C(F)(F)F)c(N)n1)CC2` [Example 34, 8-(6-amino-5-((2-(trifluoromethyl)pyridin-3-yl)thio)pyrazin-2-yl)-2,8-diazaspiro[4.5]dec-1-en-1-amine], 32 nM; to `Nc1cc(Sc2ncc(N3CCC4(CC3)C[C@H](O)C[C@H]4N)nc2N)c(Cl)c(Cl)n1` [Example 90], 4 nM.
On to `Nc1nc(N2CCC3(CCC[C@H]3N)CC2)cnc1Sc1cccc(Cl)c1Cl` [Example 3], for which it took 10 nM to reach half-maximal inhibition (IC50).
`NC1=NCC2(CCN(c3cnc(Sc4cccnc4C(F)(F)F)c(N)n3)CC2)O1` [Example 72, 8-(6-amino-5-((2-(trifluoromethyl)pyridin-3-yl)thio)pyrazin-2-yl)-1-oxa-3,8-diazaspiro[4.5]dec-2-en-2-amine] had an IC50 of 193 nM.
Take `CO[C@H]1C[C@@H](N)C2(CCN(c3cnc(Sc4ccnc(N)c4Cl)c(N)n3)CC2)C1` [Example 59]: the midpoint of inhibition, the IC50, lay at 10 nM. Compared with the last molecule, the IC50 is about 19-fold lower.
For the molecule `Nc1nc(N2CCC3(CC2)OCCC3N)cnc1Sc1cccnc1C(F)(F)F` (centres unmarked) [Example 35], the IC50 is 232 nM. Compared with the last molecule, the IC50 is about 23-fold higher.
Consider `CO[C@H]1C[C@@H](N)C2(CCN(c3cnc(Sc4cccnc4C(F)(F)F)c(N)n3)CC2)C1` [Example 48], for which half-maximal inhibition (IC50) was put at 9 nM.
In the case of `NC(=O)c1nc(Sc2cccnc2C(F)(F)F)c(N)nc1N1CCC2(CCCC2N)CC1` (stereo in doubt) [Example 21, (S)-5-amino-3-(1-amino-8-azaspiro[4.5]decan-8-yl)-6-((2-(trifluoromethyl)pyridin-3-yl)thio)pyrazine-2-carboxamide] it was 10 nM; in that of `NC1=NC2(CCN(c3cnc(Sc4ccnc(Cl)c4Cl)c(N)n3)CC2)CO1` [Example 73], 20 nM; in that of `Nc1cc(Sc2ncc(N3CCC4(CC3)COC[C@H]4N)nc2N)c(Cl)c(Cl)n1` [Example 89], 11.8 nM.
As for `Nc1nc(N2CCC3(CCC[C@H]3N)CC2)cnc1Sc1ccnc(N)c1Cl` [Example 26, (R)-8-(6-amino-5-((2-amino-3-chloropyridin-4-yl)thio)pyrazin-2-yl)-8-azaspiro[4.5]decan-1-amine], the IC50 was found to be 14 nM.
`NC(=O)c1cc(Sc2cccnc2C(F)(F)F)c(N)nc1N1CCC2(CCC[C@H]2N)CC1` [Example 39, (R)-6-amino-2-(1-amino-8-azaspiro[4.5]decan-8-yl)-5-((2-(trifluoromethyl)pyridin-3-yl)thio)nicotinamide] displayed an IC50 of 118 nM. Against the preceding molecule, the IC50 is about 8.4-fold higher.
With `NC1=NC2(CCN(c3cnc(Sc4cccnc4C(F)(F)F)c(N)n3)CC2)CO1` [Example 74], the IC50 was 56 nM.
Regarding `Nc1nc(N2CCC3(CCC3N)CC2)cnc1Sc1cccc(Cl)c1Cl` (racemic) [Example 14, 7-(6-amino-5-((2,3-dichlorophenyl)thio)pyrazin-2-yl)-7-azaspiro[3.5]nonan-1-amine], the IC50 is 56 nM.
In turn, `CO[C@H]1C[C@@H](N)C2(CCN(c3cnc(Sc4ccnc(Cl)c4Cl)c(N)n3)CC2)C1` [Example 60] had an IC50 of 4 nM.
The molecule `Nc1nc(N2CCC3(CC2)C[C@@H](O)C[C@@H]3N)cnc1Sc1cccnc1C(F)(F)F` [Example 44] registered an IC50 of 135 nM.
Turning to `Nc1nc(N2CCC3(CCCC3N)CC2)cnc1Sc1cccc(Cl)c1Cl` (centres unmarked) [Example 2], the concentration for half-maximal inhibition (IC50) stood at 25 nM.
As for `Nc1nc(N2CCC3(CC2)COC[C@H]3N)cnc1Sc1ccnc(F)c1Cl` [Example 64], the IC50 stood at 13 nM.
